Measured values taken from patent US20140309293A1, “CRYSTALLINE FORM” (L[…] INTE[…].P. A., priority 2011, published 2014).

Assay: accelerated stability test
Format: physicochemical
Settings: compared with the known crystalline forms of R-(+)-α-lipoic acid
Description: Since it is a pharmaceutically active molecule which is notoriously very reactive and tends to polymerise, improved stability obviously represents a very important quality.

O=C(O)CCCCC1CCSS1 (stereo not drawn) [new crystalline form, R-(+)-α-lipoic acid]
stability of the crystalline form: more stable than the known crystalline forms
